Test results taken from ChEMBL document CHEMBL6182920, “The Discovery of C7-Substituted Norbornyl Bisamides as RXFP1 Small Molecule Agonists” (J Med Chem, 2025).
Values after ≈ are worked out from the molar mass of the structure shown.

How the values were obtained:
[1] = molecular target: T1, Relaxin receptor 1 (Homo sapiens, UniProt Q9HBX9); experiment: Agonist activity at human RXFP1 stably expressed in HEK293 cells assessed as intracellular cAMP accumulation incubated for 30 mins by HTRF assay
T1 sequence (Q9HBX9 whole entry): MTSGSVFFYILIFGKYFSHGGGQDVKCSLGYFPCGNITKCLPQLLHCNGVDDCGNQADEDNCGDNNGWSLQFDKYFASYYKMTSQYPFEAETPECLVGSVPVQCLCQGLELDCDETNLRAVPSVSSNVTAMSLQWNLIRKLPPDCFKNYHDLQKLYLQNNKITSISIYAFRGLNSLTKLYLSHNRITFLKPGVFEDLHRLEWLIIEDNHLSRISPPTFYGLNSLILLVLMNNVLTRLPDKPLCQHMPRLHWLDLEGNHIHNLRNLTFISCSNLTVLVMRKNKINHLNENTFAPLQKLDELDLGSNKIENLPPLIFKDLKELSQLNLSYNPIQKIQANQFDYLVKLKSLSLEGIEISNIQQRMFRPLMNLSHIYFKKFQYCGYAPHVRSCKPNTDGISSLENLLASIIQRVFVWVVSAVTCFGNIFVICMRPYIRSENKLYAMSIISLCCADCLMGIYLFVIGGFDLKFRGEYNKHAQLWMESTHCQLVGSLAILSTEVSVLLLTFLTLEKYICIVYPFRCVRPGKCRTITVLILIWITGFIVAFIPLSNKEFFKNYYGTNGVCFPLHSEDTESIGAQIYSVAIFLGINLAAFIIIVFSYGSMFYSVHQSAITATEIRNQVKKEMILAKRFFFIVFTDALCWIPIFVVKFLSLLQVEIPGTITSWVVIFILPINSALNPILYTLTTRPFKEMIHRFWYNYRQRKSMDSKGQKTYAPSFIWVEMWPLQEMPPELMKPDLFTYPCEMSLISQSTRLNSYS

[2] = Microsomal stability in rat liver microsomes assessed as compound remaining measured after 30 mins; assay type: ADME, Microsome; settings: read-out: Stability
[3] = molecular target: T2, Relaxin receptor 1 (Mus musculus, UniProt Q6R6I7); experiment: Agonist activity at mouse RXFP1 stably expressed in HEK293 cells assessed as intracellular cAMP accumulation incubated for 30 mins by HTRF assay; assay type: functional, cell-based
T2 sequence (Q6R6I7 whole entry): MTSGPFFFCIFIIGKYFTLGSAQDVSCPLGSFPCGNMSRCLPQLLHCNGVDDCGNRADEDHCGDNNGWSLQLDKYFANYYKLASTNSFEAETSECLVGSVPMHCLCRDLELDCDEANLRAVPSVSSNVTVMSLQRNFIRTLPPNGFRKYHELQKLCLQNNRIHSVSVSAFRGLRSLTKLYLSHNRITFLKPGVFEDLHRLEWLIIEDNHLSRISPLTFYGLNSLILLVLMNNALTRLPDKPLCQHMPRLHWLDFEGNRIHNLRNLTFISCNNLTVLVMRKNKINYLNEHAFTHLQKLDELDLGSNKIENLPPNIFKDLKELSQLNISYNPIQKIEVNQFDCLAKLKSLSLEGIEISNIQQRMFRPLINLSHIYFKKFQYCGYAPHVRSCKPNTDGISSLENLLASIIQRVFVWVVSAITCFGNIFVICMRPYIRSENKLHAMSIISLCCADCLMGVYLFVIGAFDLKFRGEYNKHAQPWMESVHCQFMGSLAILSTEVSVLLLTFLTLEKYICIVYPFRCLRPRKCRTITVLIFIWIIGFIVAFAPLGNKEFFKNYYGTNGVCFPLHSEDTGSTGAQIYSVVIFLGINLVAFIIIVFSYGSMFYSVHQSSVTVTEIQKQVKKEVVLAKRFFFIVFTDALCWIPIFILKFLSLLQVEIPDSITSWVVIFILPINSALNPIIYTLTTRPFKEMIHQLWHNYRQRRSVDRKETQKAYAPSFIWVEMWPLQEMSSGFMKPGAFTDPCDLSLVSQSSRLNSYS

[4] = molecular target: T3, Relaxin receptor 1 (Rattus norvegicus, UniProt Q6R6I6); experiment: Agonist activity at rat RXFP1 stably expressed in HEK293 cells assessed as intracellular cAMP accumulation incubated for 30 mins by HTRF assay; assay type: cell-based
T3 sequence (Q6R6I6 whole entry): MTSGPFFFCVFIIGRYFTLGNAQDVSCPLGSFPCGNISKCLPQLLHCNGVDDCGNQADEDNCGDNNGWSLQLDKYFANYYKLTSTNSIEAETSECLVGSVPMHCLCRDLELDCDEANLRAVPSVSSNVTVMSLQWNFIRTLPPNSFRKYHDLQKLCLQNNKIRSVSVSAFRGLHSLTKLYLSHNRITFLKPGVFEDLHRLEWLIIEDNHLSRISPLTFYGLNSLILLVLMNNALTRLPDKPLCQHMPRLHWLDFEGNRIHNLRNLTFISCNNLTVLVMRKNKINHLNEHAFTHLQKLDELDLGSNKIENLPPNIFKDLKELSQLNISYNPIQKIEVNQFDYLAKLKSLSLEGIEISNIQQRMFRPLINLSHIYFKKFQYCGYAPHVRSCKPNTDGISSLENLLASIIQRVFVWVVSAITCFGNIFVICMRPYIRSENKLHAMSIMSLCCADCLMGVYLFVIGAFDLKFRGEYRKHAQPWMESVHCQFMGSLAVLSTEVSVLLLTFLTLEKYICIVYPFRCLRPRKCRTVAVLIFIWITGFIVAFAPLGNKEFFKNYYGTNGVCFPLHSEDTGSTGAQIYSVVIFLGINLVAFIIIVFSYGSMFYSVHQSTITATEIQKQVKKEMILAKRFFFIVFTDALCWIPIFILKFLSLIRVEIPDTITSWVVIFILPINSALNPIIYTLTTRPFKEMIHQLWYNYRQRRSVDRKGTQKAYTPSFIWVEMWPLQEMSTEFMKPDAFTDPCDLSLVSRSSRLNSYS

[5] = Microsomal stability in human liver microsomes assessed as compound remaining measured after 30 mins; assay type: ADME, Microsome; settings: read-out: Stability
[6] = Thermodynamic aqueous solubility of compound in phosphate buffer at pH 7.4 by reversed-phase ultrahigh pressure liquid chromatography; assay type: physicochemical; settings: for solubility thermodynamic: phosphate buffer, read-out: Therm_solubility
[7] = Microsomal stability in mouse liver microsomes assessed as compound remaining measured after 30 mins; assay type: ADME, Microsome; settings: read-out: Stability
[8] = molecular target: T2, Relaxin receptor 1; experiment: Partial agonist activity at mouse RXFP1 expressed in HEK293 cells assessed as intracellular cAMP accumulation incubated for 30 mins by HTRF assay; assay type: functional, cell-based

Row | SMILES | EC50 [1] [nM] | remaining at 0.5 h [2] [%] | EC50 [3] [nM] | remaining at 0.5 h [5] [%] | remaining at 0.5 h [7] [%] | also measured
1 | COc1ccc(-c2cc(C(O)C(=O)O)ccc2F)cc1C(=O)N[C@H]1[C@@H](C(=O)Nc2ccc(F)c(C(F)(F)F)c2)[C@H]2CC[C@@H]1/C2=C\c1cnoc1 (some centres undefined) | 13 | > 90 | 1100 | > 90 | > 90 | EC50 [4]: 1100 nM; solubility thermodynamic [6]: 60 µg/mL (≈ 86 µM)
2 | CNC(=O)OC(C(=O)O)c1ccc(F)c(-c2ccc(OC)c(C(=O)N[C@H]3[C@@H](C(=O)Nc4ccc(F)c(C(F)(F)F)c4)[C@H]4CC[C@@H]3/C4=C\C3CC3)c2)c1 (stereo in doubt; 40) | 6 | > 90 | 390 | > 90 | > 90 | EC50 [4]: 590 nM; Therm_solubility ([6]; buffer): 250 µg/mL
3 | COc1ccc(-c2cc(C(=O)O)ccc2F)cc1C(=O)N[C@H]1[C@@H](C(=O)NCc2ccccc2C(F)(F)F)[C@H]2CC[C@@H]1/C2=C\C1CC1 |  |  | 2200 |  |  | 
4 | COc1ccc(-c2cc(C(=O)O)ccc2F)cc1C(=O)N[C@H]1[C@@H](C(=O)NC2CCCC2)[C@H]2CC[C@@H]1/C2=C\C1CC1 |  |  | 1300 |  |  | 
5 | COc1cc(F)c(F)cc1C(=O)N[C@H]1[C@@H](C(=O)Nc2ccc(F)c(C(F)(F)F)c2)[C@@H]2CC[C@@H]1C2C(C)C (stereo in doubt) | 3500 |  |  |  |  | 
6 | COc1ccc(-c2cc(O)ccc2F)cc1C(=O)N[C@H]1[C@@H](C(=O)Nc2ccc(F)c(C(F)(F)F)c2)[C@H]2CC[C@@H]1/C2=C\c1cnoc1 |  | > 90 | 3000 | > 90 | > 90 | 
7 | COc1ccc(-c2cccc(C(=O)O)c2)cc1C(=O)N[C@H]1[C@@H](C(=O)Nc2ccc(F)c(C(F)(F)F)c2)[C@H]2CC[C@@H]1C2=C(C)C |  |  | 6300 |  |  | 
8 | COc1ccc(-c2cc(C(=O)O)ccc2OC)cc1C(=O)N[C@H]1[C@@H](C(=O)Nc2ccc(F)c(C(F)(F)F)c2)[C@H]2CC[C@@H]1C2=C(C)C |  |  | 4600 |  |  | 
9 | COc1ccc(-c2cc(C(=O)O)ccc2C)cc1C(=O)N[C@H]1[C@@H](C(=O)Nc2ccc(F)c(C(F)(F)F)c2)[C@H]2CC[C@@H]1C2=C(C)C |  |  | 1700 |  |  | 
10 | COc1ccc(-c2cncnc2)cc1C(=O)N[C@H]1[C@@H](C(=O)Nc2ccc(F)c(C(F)(F)F)c2)[C@H]2CC[C@@H]1C2=C(C)C |  |  | > 10000 |  |  | 
11 | COC(=O)c1ccc(F)c(-c2ccc(OC)c(C(=O)N[C@H]3[C@@H](C(=O)Nc4ccc(F)c(C(F)(F)F)c4)[C@H]4CC[C@@H]3C4=C(C)C)c2)c1 |  |  | > 10000 |  |  | 
12 | COc1ccc(-c2ccncc2)cc1C(=O)N[C@H]1[C@@H](C(=O)Nc2ccc(F)c(C(F)(F)F)c2)[C@H]2CC[C@@H]1C2=C(C)C |  |  | > 20000 |  |  | 
13 | COc1cc(F)c(F)cc1C(=O)N[C@H]1[C@@H](C(=O)Nc2ccc(F)c(C(F)(F)F)c2)[C@@H]2CC[C@@H]1C2C(C)C (single isomer, unassigned; isomer 2) | 14000 |  |  |  |  | 
14 | CNC(=O)OC(C(=O)O)c1ccc(F)c(-c2ccc(OC)c(C(=O)N[C@H]3[C@@H](C(=O)Nc4ccc(F)c(C(F)(F)F)c4)[C@H]4CC[C@@H]3/C4=C\c3cnoc3)c2)c1 (some centres undefined) | 8 | > 90 | 110 | > 90 | > 90 | EC50 [4]: 140 nM
15 | COc1cc(F)c(F)cc1C(=O)N[C@H]1[C@@H](C(=O)Nc2ccc(F)c(C(F)(F)F)c2)[C@H]2CC[C@@H]1/C2=C\c1c(Cl)cccc1Cl | 3700 |  |  |  |  | 
16 | COc1ccc(-c2cc(C(=O)O)ccc2F)cc1C(=O)N[C@H]1[C@@H](C(=O)Nc2ccc(F)c(C(F)(F)F)c2)[C@H]2CC[C@@H]1/C2=C\C1CC1 |  | > 90 | 140 | > 90 | > 90 | 
17 | COc1cc(F)c(F)cc1C(=O)N[C@H]1[C@@H](C(=O)Nc2ccc(F)c(C(F)(F)F)c2)[C@H]2CC[C@@H]1/C2=C1/C=Cc2ccccc21 | 810 |  |  |  |  | 
18 | COc1ccc(-c2cc(C(=O)O)ccc2F)cc1C(=O)N[C@H]1[C@@H](C(=O)Nc2ccc(F)c(C(F)(F)F)c2)[C@H]2CC[C@@H]1C2=C(C)C |  |  | 940 |  |  | 
19 | COc1ccc(-c2cc(C(N)=O)ccc2F)cc1C(=O)N[C@H]1[C@@H](C(=O)Nc2ccc(F)c(C(F)(F)F)c2)[C@H]2CC[C@@H]1/C2=C\c1cnoc1 |  | > 90 | 950 | > 90 | > 90 | 
20 | COc1ccc(-c2cccnc2)cc1C(=O)N[C@H]1[C@@H](C(=O)Nc2ccc(F)c(C(F)(F)F)c2)[C@H]2CC[C@@H]1C2=C(C)C |  |  | > 10000 |  |  | 
21 | COc1ccc(-c2cc(C(=O)O)ccc2F)cc1C(=O)N[C@H]1[C@@H](C(=O)Nc2ccc(F)c(C(F)(F)F)c2)[C@H]2CC[C@@H]1/C2=C\c1ccccc1 | 16 | > 90 | 1300 | > 90 | > 90 | 
22 | COc1ccc(-c2ccccc2C(=O)O)cc1C(=O)N[C@H]1[C@@H](C(=O)Nc2ccc(F)c(C(F)(F)F)c2)[C@H]2CC[C@@H]1C2=C(C)C |  |  | > 20000 |  |  | 
23 | COc1ccc(-c2cc(CC(=O)O)ccc2F)cc1C(=O)N[C@H]1[C@@H](C(=O)Nc2ccc(F)c(C(F)(F)F)c2)[C@H]2CC[C@@H]1/C2=C\c1cnoc1 | 11 | > 90 | 740 | > 90 | > 90 | EC50 [4]: 1200 nM; solubility thermodynamic [6]: 130 µg/mL (≈ 191 µM)
24 | COc1ccc(-c2cc(C(=O)NS(C)(=O)=O)ccc2F)cc1C(=O)N[C@H]1[C@@H](C(=O)Nc2ccc(F)c(C(F)(F)F)c2)[C@H]2CC[C@@H]1/C2=C\c1cnoc1 | 22 | > 90 | 560 | > 90 | > 90 | EC50 [4]: 890 nM; solubility thermodynamic [6]: < 1 µg/mL
25 | COc1ccc(-c2ccc(C(=O)O)cc2)cc1C(=O)N[C@H]1[C@@H](C(=O)Nc2ccc(F)c(C(F)(F)F)c2)[C@H]2CC[C@@H]1C2=C(C)C | 380 |  | 2300 |  |  | EC50 [8]: 2300 nM
